Measured values reported in ChEMBL document CHEMBL5444388, “Affinity Phenotypic Cellular Literature for EUbOPEN Chemogenomic Library” (2024).

Experiments:
Format in all cases: functional, cell-based
Design in all cases: recommended concentration 100 nM
[1] = target: Centromere-associated protein E (Homo sapiens) (UniProt Q02224); experiment: Affinity Phenotypic Cellular interaction: (Cell-growth inhibition assays (growth inhibitory effect colon cancer cell line SCC-4)) EUB0000734a CENPE; details: Affinity Phenotypic Cellular Source Knowledge https://pubmed.ncbi.nlm.nih.gov/20167803/
Centromere-associated protein E (Homo sapiens), sequence (Q02224 whole entry): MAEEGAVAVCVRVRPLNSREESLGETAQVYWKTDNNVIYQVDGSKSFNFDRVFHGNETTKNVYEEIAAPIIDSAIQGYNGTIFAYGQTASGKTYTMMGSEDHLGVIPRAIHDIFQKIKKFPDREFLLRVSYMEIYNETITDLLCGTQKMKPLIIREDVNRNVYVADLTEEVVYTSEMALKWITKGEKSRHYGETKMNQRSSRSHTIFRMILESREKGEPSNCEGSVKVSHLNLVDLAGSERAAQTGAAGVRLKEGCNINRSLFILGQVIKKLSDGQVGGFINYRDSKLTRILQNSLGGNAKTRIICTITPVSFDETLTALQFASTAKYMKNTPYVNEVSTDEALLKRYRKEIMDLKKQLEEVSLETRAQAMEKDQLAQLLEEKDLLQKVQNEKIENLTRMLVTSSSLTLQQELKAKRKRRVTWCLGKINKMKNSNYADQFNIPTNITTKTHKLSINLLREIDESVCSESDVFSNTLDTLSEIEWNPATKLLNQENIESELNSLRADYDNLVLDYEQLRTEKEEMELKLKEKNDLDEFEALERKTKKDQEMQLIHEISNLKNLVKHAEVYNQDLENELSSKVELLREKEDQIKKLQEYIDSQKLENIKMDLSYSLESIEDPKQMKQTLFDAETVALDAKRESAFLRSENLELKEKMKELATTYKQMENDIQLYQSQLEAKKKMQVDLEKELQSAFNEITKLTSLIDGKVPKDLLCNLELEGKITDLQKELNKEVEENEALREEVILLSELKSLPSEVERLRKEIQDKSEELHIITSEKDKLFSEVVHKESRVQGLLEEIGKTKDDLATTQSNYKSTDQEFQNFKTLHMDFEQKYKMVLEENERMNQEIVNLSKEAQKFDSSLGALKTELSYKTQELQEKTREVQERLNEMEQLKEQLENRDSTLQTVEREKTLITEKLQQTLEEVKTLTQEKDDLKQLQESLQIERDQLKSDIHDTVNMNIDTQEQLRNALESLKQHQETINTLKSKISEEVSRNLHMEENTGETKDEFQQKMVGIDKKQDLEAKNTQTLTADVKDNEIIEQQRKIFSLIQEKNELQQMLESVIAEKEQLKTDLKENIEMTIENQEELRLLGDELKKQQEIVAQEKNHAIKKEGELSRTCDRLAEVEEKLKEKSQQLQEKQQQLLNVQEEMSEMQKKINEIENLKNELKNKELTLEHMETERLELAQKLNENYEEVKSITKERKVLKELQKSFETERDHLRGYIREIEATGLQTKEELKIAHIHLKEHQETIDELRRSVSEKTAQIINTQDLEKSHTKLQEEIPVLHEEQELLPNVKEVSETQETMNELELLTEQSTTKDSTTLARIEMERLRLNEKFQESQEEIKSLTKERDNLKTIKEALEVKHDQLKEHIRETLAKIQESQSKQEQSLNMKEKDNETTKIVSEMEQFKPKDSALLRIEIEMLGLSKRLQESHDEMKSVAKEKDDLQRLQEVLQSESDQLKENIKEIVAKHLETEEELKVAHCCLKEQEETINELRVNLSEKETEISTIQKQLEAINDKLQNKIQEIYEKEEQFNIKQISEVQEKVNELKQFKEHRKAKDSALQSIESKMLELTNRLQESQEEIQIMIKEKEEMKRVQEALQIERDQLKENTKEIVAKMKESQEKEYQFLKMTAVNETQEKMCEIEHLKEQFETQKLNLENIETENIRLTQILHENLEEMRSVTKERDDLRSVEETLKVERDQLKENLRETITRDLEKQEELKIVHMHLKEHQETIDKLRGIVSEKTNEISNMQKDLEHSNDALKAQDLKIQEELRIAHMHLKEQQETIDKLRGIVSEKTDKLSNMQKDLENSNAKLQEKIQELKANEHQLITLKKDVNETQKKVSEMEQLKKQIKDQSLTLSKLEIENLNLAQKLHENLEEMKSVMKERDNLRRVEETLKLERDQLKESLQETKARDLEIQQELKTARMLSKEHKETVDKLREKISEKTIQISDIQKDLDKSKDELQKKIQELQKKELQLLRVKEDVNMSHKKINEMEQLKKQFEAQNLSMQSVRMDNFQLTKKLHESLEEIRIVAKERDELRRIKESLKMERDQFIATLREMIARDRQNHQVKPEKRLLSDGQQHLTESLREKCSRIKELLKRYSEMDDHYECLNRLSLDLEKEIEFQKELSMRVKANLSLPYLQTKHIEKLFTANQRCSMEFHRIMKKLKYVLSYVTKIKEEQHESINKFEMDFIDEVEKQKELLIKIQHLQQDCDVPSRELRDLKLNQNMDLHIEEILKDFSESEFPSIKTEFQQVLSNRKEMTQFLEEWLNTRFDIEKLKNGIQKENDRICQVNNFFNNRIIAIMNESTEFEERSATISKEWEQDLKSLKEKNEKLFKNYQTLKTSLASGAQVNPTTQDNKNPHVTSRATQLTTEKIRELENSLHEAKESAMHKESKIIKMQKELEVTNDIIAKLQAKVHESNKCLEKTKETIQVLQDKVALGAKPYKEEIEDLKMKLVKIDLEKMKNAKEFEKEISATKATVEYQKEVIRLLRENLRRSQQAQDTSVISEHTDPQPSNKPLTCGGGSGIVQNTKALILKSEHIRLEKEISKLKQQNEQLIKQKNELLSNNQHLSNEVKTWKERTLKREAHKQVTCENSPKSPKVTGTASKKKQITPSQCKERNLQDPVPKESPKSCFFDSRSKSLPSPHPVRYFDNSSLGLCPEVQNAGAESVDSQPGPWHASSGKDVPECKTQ

[2] = target: Centromere-associated protein E (Homo sapiens) (UniProt Q02224); experiment: Affinity Phenotypic Cellular interaction: (Cell-growth inhibition assays (growth inhibitory effect sarcoma cancer cell line TE381.T)) EUB0000734a CENPE; details: TE 381.T, Affinity Phenotypic Cellular Source Knowledge https://pubmed.ncbi.nlm.nih.gov/20167803/
[3] = target: Centromere-associated protein E (Homo sapiens) (UniProt Q02224); experiment: Affinity Phenotypic Cellular interaction: (Cell-growth inhibition assays (growth inhibitory effect colon cancer cell line SW837)) EUB0000734a CENPE; details: Affinity Phenotypic Cellular Source Knowledge https://pubmed.ncbi.nlm.nih.gov/20167803/
[4] = target: Centromere-associated protein E (Homo sapiens) (UniProt Q02224); experiment: Affinity Phenotypic Cellular interaction: (Cell-growth inhibition assays (growth inhibitory effect colon cancer cell line Y79)) EUB0000734a CENPE; details: Affinity Phenotypic Cellular Source Knowledge https://pubmed.ncbi.nlm.nih.gov/20167803/
[5] = target: Centromere-associated protein E (Homo sapiens) (UniProt Q02224); experiment: Affinity Phenotypic Cellular interaction: (Cell-growth inhibition assays (growth inhibitory effect colon cancer cell line U251)) EUB0000734a CENPE; details: U-251, Affinity Phenotypic Cellular Source Knowledge https://pubmed.ncbi.nlm.nih.gov/20167803/
[6] = target: Centromere-associated protein E (Homo sapiens) (UniProt Q02224); experiment: Affinity Phenotypic Cellular interaction: (Cell-growth inhibition assays (growth inhibitory effect colon cancer cell line DB)) EUB0000734a CENPE; details: Affinity Phenotypic Cellular Source Knowledge https://pubmed.ncbi.nlm.nih.gov/20167803/
[7] = target: Centromere-associated protein E (Homo sapiens) (UniProt Q02224); experiment: Affinity Phenotypic Cellular interaction: (Cell-growth inhibition assays (growth inhibitory effect colon cancer cell line SW-954)) EUB0000734a CENPE; details: Affinity Phenotypic Cellular Source Knowledge https://pubmed.ncbi.nlm.nih.gov/20167803/
[8] = target: Centromere-associated protein E (Homo sapiens) (UniProt Q02224); experiment: Affinity Phenotypic Cellular interaction: (Cell-growth inhibition assays (growth inhibitory effect colon cancer cell line G-402)) EUB0000734a CENPE; details: Affinity Phenotypic Cellular Source Knowledge https://pubmed.ncbi.nlm.nih.gov/20167803/
[9] = target: Centromere-associated protein E (Homo sapiens) (UniProt Q02224); experiment: Affinity Phenotypic Cellular interaction: (Cell-growth inhibition assays (growth inhibitory effect colon cancer cell line BV-173)) EUB0000734a CENPE; details: Affinity Phenotypic Cellular Source Knowledge https://pubmed.ncbi.nlm.nih.gov/20167803/
[10] = target: Centromere-associated protein E (Homo sapiens) (UniProt Q02224); experiment: Affinity Phenotypic Cellular interaction: (Cell-growth inhibition assays (growth inhibitory effect colon cancer cell line SW1990)) EUB0000734a CENPE; details: Affinity Phenotypic Cellular Source Knowledge https://pubmed.ncbi.nlm.nih.gov/20167803/
[11] = target: Centromere-associated protein E (Homo sapiens) (UniProt Q02224); experiment: Affinity Phenotypic Cellular interaction: (Cell-growth inhibition assays (growth inhibitory effect colon cancer cell line HeLa)) EUB0000734a CENPE; details: Affinity Phenotypic Cellular Source Knowledge https://pubmed.ncbi.nlm.nih.gov/20167803/
[12] = target: Centromere-associated protein E (Homo sapiens) (UniProt Q02224); experiment: Affinity Phenotypic Cellular interaction: (Cell-growth inhibition assays (growth inhibitory effect colon cancer cell line A549)) EUB0000734a CENPE; details: Affinity Phenotypic Cellular Source Knowledge https://pubmed.ncbi.nlm.nih.gov/20167803/
[13] = target: Centromere-associated protein E (Homo sapiens) (UniProt Q02224); experiment: Affinity Phenotypic Cellular interaction: (Cell-growth inhibition assays (growth inhibitory effect colon cancer cell line HCC1143)) EUB0000734a CENPE; details: Affinity Phenotypic Cellular Source Knowledge https://pubmed.ncbi.nlm.nih.gov/20167803/
[14] = target: Centromere-associated protein E (Homo sapiens) (UniProt Q02224); experiment: Affinity Phenotypic Cellular interaction: (Cell-growth inhibition assays (growth inhibitory effect colon cancer cell line CESS)) EUB0000734a CENPE; details: Affinity Phenotypic Cellular Source Knowledge https://pubmed.ncbi.nlm.nih.gov/20167803/
[15] = target: Centromere-associated protein E (Homo sapiens) (UniProt Q02224); experiment: Affinity Phenotypic Cellular interaction: (Cell-growth inhibition assays (growth inhibitory effect colon cancer cell line CCF-STTG1)) EUB0000734a CENPE; details: Affinity Phenotypic Cellular Source Knowledge https://pubmed.ncbi.nlm.nih.gov/20167803/
[16] = target: Centromere-associated protein E (Homo sapiens) (UniProt Q02224); experiment: Affinity Phenotypic Cellular interaction: (Cell-growth inhibition assays (growth inhibitory effect colon cancer cell line SK-NEP-1)) EUB0000734a CENPE; details: Affinity Phenotypic Cellular Source Knowledge https://pubmed.ncbi.nlm.nih.gov/20167803/
[17] = target: Centromere-associated protein E (Homo sapiens) (UniProt Q02224); experiment: Affinity Phenotypic Cellular interaction: (Cell-growth inhibition assays (growth inhibitory effect colon cancer cell line YAPC)) EUB0000734a CENPE; details: Affinity Phenotypic Cellular Source Knowledge https://pubmed.ncbi.nlm.nih.gov/20167803/
[18] = target: Centromere-associated protein E (Homo sapiens) (UniProt Q02224); experiment: Affinity Phenotypic Cellular interaction: (Cell-growth inhibition assays (growth inhibitory effect colon cancer cell line BHT-101)) EUB0000734a CENPE; details: Affinity Phenotypic Cellular Source Knowledge https://pubmed.ncbi.nlm.nih.gov/20167803/
[19] = target: Centromere-associated protein E (Homo sapiens) (UniProt Q02224); experiment: Affinity Phenotypic Cellular interaction: (Cell-growth inhibition assays (growth inhibitory effect colon cancer cell line CAL-62)) EUB0000734a CENPE; details: Affinity Phenotypic Cellular Source Knowledge https://pubmed.ncbi.nlm.nih.gov/20167803/
[20] = target: Centromere-associated protein E (Homo sapiens) (UniProt Q02224); experiment: Affinity Phenotypic Cellular interaction: (Cell-growth inhibition assays (growth inhibitory effect breast cancer cell line MT-3)) EUB0000734a CENPE; details: Affinity Phenotypic Cellular Source Knowledge https://pubmed.ncbi.nlm.nih.gov/20167803/
[21] = target: Centromere-associated protein E (Homo sapiens) (UniProt Q02224); experiment: Affinity Phenotypic Cellular interaction: (Cell-growth inhibition assays (growth inhibitory effect colon cancer cell line MIA PaCa-2)) EUB0000734a CENPE; details: Affinity Phenotypic Cellular Source Knowledge https://pubmed.ncbi.nlm.nih.gov/20167803/
[22] = target: Centromere-associated protein E (Homo sapiens) (UniProt Q02224); experiment: Affinity Phenotypic Cellular interaction: (Cell-growth inhibition assays (growth inhibitory effect colon cancer cell line HN5)) EUB0000734a CENPE; details: Affinity Phenotypic Cellular Source Knowledge https://pubmed.ncbi.nlm.nih.gov/20167803/
[23] = target: Centromere-associated protein E (Homo sapiens) (UniProt Q02224); experiment: Affinity Phenotypic Cellular interaction: (Cell-growth inhibition assays (growth inhibitory effect colon cancer cell line Detroit562)) EUB0000734a CENPE; details: Detroit 562, Affinity Phenotypic Cellular Source Knowledge https://pubmed.ncbi.nlm.nih.gov/20167803/
[24] = target: Centromere-associated protein E (Homo sapiens) (UniProt Q02224); experiment: Affinity Phenotypic Cellular interaction: (Cell-growth inhibition assays (growth inhibitory effect colon cancer cell line SW1417)) EUB0000734a CENPE; details: Affinity Phenotypic Cellular Source Knowledge https://pubmed.ncbi.nlm.nih.gov/20167803/

GIC50 [1]: 28 nM
GIC50 [2]: 27 nM
GIC50 [3]: 33 nM
GIC50 [4]: 70 nM
GIC50 [5]: 26 nM
GIC50 [6]: 21 nM
GIC50 [7]: 22 nM
GIC50 [8]: 31 nM
GIC50 [9]: 56 nM
GIC50 [10]: 127 nM
GIC50 [11]: 20 nM
GIC50 [12]: 21 nM
GIC50 [13]: 27 nM
GIC50 [14]: 19 nM
GIC50 [15]: 24 nM
GIC50 [16]: 55 nM
GIC50 [17]: 59 nM
GIC50 [18]: 100 nM
GIC50 [19]: 30 nM
GIC50 [20]: 41 nM
GIC50 [21]: 23 nM
GIC50 [22]: 118 nM
GIC50 [23]: 35 nM
GIC50 [24]: 29 nM
SMILES: CC(C)Oc1ccc(C(=O)N[C@H](CNC(=O)CN(C)C)Cc2ccc(-c3cn4cccc([C@H](C)O)c4n3)cc2)cc1Cl
